Here are results for ten compounds from ChEMBL document CHEMBL1201862, “PubChem BioAssay data set” (2004).

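Test compounds were applied to cells in 96-well plates for 48 hours at 5 doses. At the GI50, growth is halved.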 Active and inactive are the calls of the source. No stated cut-off is given here; in the data, active = GI50 up to about 1.1 µM and inactive = higher.

Some test systems named below: A498; A549; CCRF-CEM; COLO 205; HCT-15; HOP-62; HOP-92; IGROV-1; K562; KM12; MCF7; MDA-N; NCI-H23; NCI-H460; NCI/ADR-RES; SF-268; T47D; TK-10; UACC-257; UACC-62.
Holding throughout (experiment): growth of human tumour cells (NCI), 48 h

As for `C=C(C)C1Cc2c(cc(O)c3c(=O)c4c(oc23)C(O)Oc2cc(OC)c(OC)cc2-4)O1` (stereo not given), the GI50 in the test on A498 is > 10 µM (inactive); in the test on A549, > 10 µM (inactive); with CCRF-CEM it was > 10 µM (inactive); with COLO 205, > 10 µM (inactive); in the test on HCT-15 it was over 10 µM; in the test on HOP-62, > 10 µM (inactive). The GI50 with HOP-92, in the test on IGROV-1, with K562, in the test with KM12, in the test on MCF7 and in the test on MDA-N was > 10 µM (inactive) in each case. The GI50 in the test with NCI-H23, in the test with NCI-H460, in the test with NCI/ADR-RES, with SF-268, in the test on T47D and in the test on TK-10 was > 10 µM (inactive) each time. Moreover, the GI50 with UACC-257 and in the test with UACC-62 was > 10 µM (inactive) throughout.
Take `COc1ccc(Nc2n[nH]c(NS(=O)(=O)c3cc(C)c(Cl)cc3S)n2)cc1`: the GI50 was > 100 µM (inactive) with A498; > 100 µM (inactive) in the test on A549; > 100 µM (inactive) with CCRF-CEM; > 100 µM (inactive) with COLO 205; over 100 µM in the test on HCT-15; > 100 µM (inactive) with HOP-62. Further, the GI50 in the test with HOP-92, in the test on IGROV-1, in the test with K562, in the test on KM12, with MCF7 and in the test with MDA-N was > 100 µM (inactive) in each case. In addition, the GI50 in the test with NCI-H23, with NCI-H460, in the test with NCI/ADR-RES, in the test on SF-268, in the test on T47D and in the test on TK-10 was > 100 µM (inactive) in each case. Further, the GI50 in the test on UACC-257 and in the test on UACC-62 was > 100 µM (inactive) throughout.
In the case of `CCOP(=O)(OCC)C(F)(F)c1ccc(CC(NC(=O)OC(C)(C)C)C(=O)O)cc1` (stereo not given), the GI50 with A498 was > 10 µM (inactive); with A549, > 10 µM (inactive); in the test with CCRF-CEM, > 10 µM (inactive); in the test on COLO 205, > 10 µM (inactive); in the test with HCT-15 it was over 10 µM; with HOP-62, 5.15 µM (inactive). In addition, the GI50 in the test with HOP-92, in the test on IGROV-1, in the test on K562, with KM12, in the test on MCF7 and in the test on MDA-N was > 10 µM (inactive) throughout. Moreover, the GI50 in the test with NCI-H23, with NCI-H460, in the test on NCI/ADR-RES, in the test on SF-268, in the test with T47D and in the test on TK-10 was > 10 µM (inactive) each time. Besides, the GI50 in the test with UACC-257 and with UACC-62 was > 10 µM (inactive) each time.
Consider `COC(=O)C1(Cc2ccc(C)cc2)Cc2c(C)cccc2C1=O` (stereo not given), for which the GI50 with A498 was 13.7 µM (inactive); in the test with A549 it was 18.2 µM (inactive); with CCRF-CEM, 82 µM (inactive); with COLO 205, 12.1 µM (inactive); in the test on HCT-15, 14.2 µM; with HOP-62, 19.3 µM (inactive). Further, the GI50 in the test on HOP-92 was 16.6 µM (inactive); in the test on IGROV-1 it was 16.4 µM (inactive); in the test on K562, 8.04 µM (inactive); in the test on KM12 it was 6.75 µM (inactive); in the test on MCF7, 11.2 µM (inactive); with MDA-N, 3.27 µM (inactive). The GI50 in the test on NCI-H23 was 35.3 µM (inactive); with NCI-H460, 17.6 µM (inactive); in the test with NCI/ADR-RES it was 14.9 µM (inactive); in the test on SF-268, 21.8 µM (inactive); in the test on T47D it was 18.5 µM (inactive); with TK-10, 26.2 µM (inactive). For the same compound, the GI50 in the test with UACC-257 was 22.1 µM (inactive); in the test on UACC-62, 20.8 µM (inactive).
Take `CN1CCc2[nH]nc(-c3n[nH]c4c3CN(C)CC4)c2C1`: the GI50 in the test with A498 was > 100 µM (inactive); with A549 it was > 100 µM (inactive); in the test with CCRF-CEM, 72.8 µM (inactive); in the test with COLO 205, > 100 µM (inactive); in the test on HCT-15, over 100 µM; with HOP-62, > 100 µM (inactive). Also, the GI50 in the test on HOP-92, in the test on IGROV-1, with K562, with KM12, with MCF7 and in the test with MDA-N was > 100 µM (inactive) each time. In addition, the GI50 in the test with NCI-H23, with NCI-H460, in the test on NCI/ADR-RES, with SF-268, in the test with T47D and in the test on TK-10 was > 100 µM (inactive) each time. Moreover, the GI50 with UACC-257 and in the test with UACC-62 was > 100 µM (inactive) in each case.
Regarding `O=C1Nc2ccccc2/C1=N/N=C1NCCCCN1`, the GI50 is > 100 µM (inactive) with A498; > 100 µM (inactive) in the test with A549; > 100 µM (inactive) in the test on CCRF-CEM; > 100 µM (inactive) in the test with COLO 205; over 100 µM in the test with HCT-15; > 100 µM (inactive) with HOP-62. In addition, the GI50 with HOP-92, with IGROV-1, in the test on K562, in the test on KM12, with MCF7 and with MDA-N was > 100 µM (inactive) throughout. For the same compound, the GI50 with NCI-H23 was > 100 µM (inactive); in the test with NCI-H460, > 100 µM (inactive); with NCI/ADR-RES, > 100 µM (inactive); in the test with SF-268 it was > 100 µM (inactive); in the test with T47D, 57.8 µM (inactive); with TK-10 it was > 100 µM (inactive). For the same compound, the GI50 in the test with UACC-257 and with UACC-62 was > 100 µM (inactive) throughout.
As for `CC(C)(C)OC(=O)NCCCCC(N)NC(=O)c1ccccc1` (stereo not given), the GI50 in the test with A498 is > 100 µM (inactive); with A549, > 100 µM (inactive); in the test on CCRF-CEM it was > 100 µM (inactive); with COLO 205, > 100 µM (inactive); in the test with HCT-15 it was over 100 µM; with HOP-62, > 100 µM (inactive). Moreover, the GI50 with HOP-92, in the test on IGROV-1, in the test with K562, in the test with KM12, in the test on MCF7 and in the test on MDA-N was > 100 µM (inactive) in each case. In addition, the GI50 with NCI-H23, in the test with NCI-H460, with NCI/ADR-RES, in the test with SF-268, in the test on T47D and in the test on TK-10 was > 100 µM (inactive) each time. Also, the GI50 with UACC-257 and in the test on UACC-62 was > 100 µM (inactive) each time.
For `Cc1ccc2c(n1)C(=O)c1cc(C)c(C)cc1C2=O`, the GI50 in the test on A498 is > 100 µM (inactive); with A549, 64.9 µM (inactive); with CCRF-CEM it was > 100 µM (inactive); in the test on COLO 205, 32 µM (inactive); with HCT-15, 75.9 µM; in the test with HOP-62, > 100 µM (inactive). The GI50 with HOP-92 was 43.1 µM (inactive); in the test with IGROV-1, 63.1 µM (inactive); with K562 it was 68.7 µM (inactive); in the test on KM12, 53.2 µM (inactive); in the test on MCF7 it was 67 µM (inactive); in the test with MDA-N, > 100 µM (inactive). The GI50 with NCI-H23 is > 100 µM (inactive); with NCI-H460, 10.6 µM (inactive); with NCI/ADR-RES, 44 µM (inactive); in the test with SF-268 it was 49.8 µM (inactive); in the test on T47D, 49.5 µM (inactive); in the test with TK-10, > 100 µM (inactive). Also, the GI50 is 30.4 µM (inactive) in the test on UACC-257 and 45.9 µM (inactive) in the test with UACC-62.
In the case of `O=C(C/C(=N/O)c1cc(-c2ccccc2)no1)c1ccccc1`, the GI50 in the test with A498 is > 100 µM (inactive); with A549, 58.6 µM (inactive); with CCRF-CEM, > 100 µM (inactive); in the test with COLO 205, > 100 µM (inactive); with HCT-15, over 100 µM; in the test on HOP-62, 23.8 µM (inactive). The GI50 in the test on HOP-92 was 22.2 µM (inactive); in the test on IGROV-1, 30 µM (inactive); in the test with K562, 41.3 µM (inactive); with KM12, > 100 µM (inactive); in the test on MCF7, 44.5 µM (inactive); in the test on MDA-N, > 100 µM (inactive). The GI50 is 20.9 µM (inactive) with NCI-H23; 39.6 µM (inactive) in the test on NCI-H460; 25.8 µM (inactive) in the test with NCI/ADR-RES; 18.7 µM (inactive) in the test with SF-268; 35.8 µM (inactive) in the test on T47D; 35.1 µM (inactive) in the test on TK-10. For the same compound, the results for the GI50 in the test with UACC-257 and with UACC-62 were 79.8 µM (inactive) and 31 µM (inactive), respectively.
On to `CCCC(=O)OC[n+]1cccc(-c2c(COC(=O)NC(C)C)c(COC(=O)NC(C)C)c3n2CCC3)c1`, for which the GI50 with A498 is 28.5 µM (inactive); in the test with A549, 89.5 µM (inactive); in the test with CCRF-CEM, 9.98 µM (inactive); with COLO 205 it was 73.3 µM (inactive); in the test on HCT-15 it was over 93.3 µM; with HOP-62, 49.8 µM (inactive). In addition, the GI50 in the test on HOP-92 was 32.4 µM (inactive); in the test on IGROV-1 it was > 46.3 µM (inactive); in the test with K562, 50.8 µM (inactive); in the test with KM12 it was > 100 µM (inactive); with MCF7, 40 µM (inactive); with MDA-N, > 100 µM (inactive). The GI50 in the test on NCI-H23 is 34.8 µM (inactive); with NCI-H460, 29.6 µM (inactive); in the test with NCI/ADR-RES, 61.8 µM (inactive); in the test on SF-268 it was 32 µM (inactive); with T47D, > 91.8 µM (inactive); in the test on TK-10, > 72.4 µM (inactive). Besides, the GI50 with UACC-257 is > 100 µM (inactive); in the test with UACC-62 it was 20.1 µM (inactive).
